According to ChEMBL document CHEMBL3885881, “DrugMatrix”:

Species: Rattus norvegicus
Assay: DrugMatrix - Regimen: Daily Repeat
Type: toxicity, organism-based, Sprague-Dawley
Set-up: regimen Daily Repeat, gender Male, age 6-8 weeks
Settings: in vivo, po, 5 mg/kg, route oral GAVAGE, dose level Low, vehicle .5 % CMC; for ABSOLUTE BASOPHIL / ABSOLUTE EOSINOPHIL / ABSOLUTE LYMPHOCYTE / ABSOLUTE MONOCYTE / ABSOLUTE SEGMENTED NEUTROPHIL / BASOPHIL / EOSINOPHIL / ERYTHROCYTE COUNT / HEMATOCRIT / HEMOGLOBIN / LEUKOCYTE COUNT / LYMPHOCYTE / MEAN CORPUSCULAR HEMOGLOBIN / MEAN CORPUSCULAR HEMOGLOBIN CONCENTRATION / MEAN CORPUSCULAR VOLUME / MONOCYTE / NEUTROPHIL / NUCLEATED RED BLOOD CELLS / PLATELET COUNT: tissue Blood; for ALANINE AMINOTRANSFERASE / ALBUMIN / ALKALINE PHOSPHATASE / ASPARTATE AMINOTRANSFERASE / BLOOD UREA NITROGEN / CARBON DIOXIDE / CHLORIDE / CHOLESTEROL / CREATINE PHOSPHOKINASE / CREATININE / GLUCOSE / LACTATE DEHYDROGENASE / LIPASE / PHOSPHORUS / POTASSIUM / SODIUM / TOTAL BILIRUBIN / TOTAL PROTEIN / URIC ACID: tissue Plasma

With `Nc1nnc(-c2cccc(Cl)c2Cl)c(N)n1` [LAMOTRIGINE] the “ABSOLUTE BASOPHIL” value (72 h, time 3 day) was 0 CELLS/uL, the “ABSOLUTE EOSINOPHIL” value (72 h, time 3 day) was 0 CELLS/uL and the “ABSOLUTE LYMPHOCYTE” value (72 h, time 3 day) was 10899.33 CELLS/uL. For the same compound, the “ABSOLUTE MONOCYTE” value (72 h, time 3 day) was 45.33 CELLS/uL, the “ABSOLUTE SEGMENTED NEUTROPHIL” value (72 h, time 3 day) was 922 CELLS/uL and the BASOPHIL (72 h, time 3 day) was 0%. The EOSINOPHIL (72 h, time 3 day) was 0%, the “ERYTHROCYTE COUNT” value (72 h, time 3 day) was 5.73 x10E6/uL and the HEMATOCRIT (72 h, time 3 day) was 35.93%. The HEMOGLOBIN (72 h, time 3 day) was 13.53 G/DL, the “LEUKOCYTE COUNT” value (72 h, time 3 day) was 11.87 x10E3/uL and the LYMPHOCYTE (72 h, time 3 day) was 91.67%. The “MEAN CORPUSCULAR HEMOGLOBIN” value (72 h, time 3 day) was 23.7 pg, the “MEAN CORPUSCULAR HEMOGLOBIN CONCENTRATION” value (72 h, time 3 day) was 37.7 G/DL and the “MEAN CORPUSCULAR VOLUME” value (72 h, time 3 day) was 62.83 fL. For the same compound, the MONOCYTE (72 h, time 3 day) was 0.33%, the NEUTROPHIL (72 h, time 3 day) was 8% and the “NUCLEATED RED BLOOD CELLS” value (72 h, time 3 day) was 0.33 /100WBC. The “PLATELET COUNT” value (72 h, time 3 day) was 1386.33 x10E3/uL, the “ALANINE AMINOTRANSFERASE” value (72 h, time 3 day) was 59 u/L and the ALBUMIN (72 h, time 3 day) was 4.23 G/DL. The “ALKALINE PHOSPHATASE” value (72 h, time 3 day) was 377.33 u/L, the “ASPARTATE AMINOTRANSFERASE” value (72 h, time 3 day) was 90.67 u/L and the “BLOOD UREA NITROGEN” value (72 h, time 3 day) was 15 mg/dL. For the same compound, the “CARBON DIOXIDE” value (72 h, time 3 day) was 25.67 mmol/L, the CHLORIDE (72 h, time 3 day) was 103.33 MEQ/L and the CHOLESTEROL (72 h, time 3 day) was 73.33 mg/dL. The “CREATINE PHOSPHOKINASE” value (72 h, time 3 day) was 322.33 u/L, the CREATININE (72 h, time 3 day) was 0.43 mg/dL and the GLUCOSE (72 h, time 3 day) was 152 mg/dL. For the same compound, the “LACTATE DEHYDROGENASE” value (72 h, time 3 day) was 339.67 u/L, the LIPASE (72 h, time 3 day) was 10.33 u/L and the PHOSPHORUS (72 h, time 3 day) was 13.67 mg/dL. For the same compound, the POTASSIUM (72 h, time 3 day) was 6.72 MEQ/L, the SODIUM (72 h, time 3 day) was 145.9 MEQ/L and the “TOTAL BILIRUBIN” value (72 h, time 3 day) was 0.2 mg/dL. The “TOTAL PROTEIN” value (72 h, time 3 day) was 5.77 G/DL, the “URIC ACID” value (72 h, time 3 day) was 1.6 mg/dL and the “ABSOLUTE BASOPHIL” value (120 h, time 5 day) was 0 CELLS/uL. The “ABSOLUTE EOSINOPHIL” value (120 h, time 5 day) was 56.33 CELLS/uL, the “ABSOLUTE LYMPHOCYTE” value (120 h, time 5 day) was 12053 CELLS/uL and the “ABSOLUTE MONOCYTE” value (120 h, time 5 day) was 415 CELLS/uL. For the same compound, the “ABSOLUTE SEGMENTED NEUTROPHIL” value (120 h, time 5 day) was 1309 CELLS/uL, the BASOPHIL (120 h, time 5 day) was 0% and the EOSINOPHIL (120 h, time 5 day) was 0.33%. The “ERYTHROCYTE COUNT” value (120 h, time 5 day) was 5.33 x10E6/uL, the HEMATOCRIT (120 h, time 5 day) was 35.73% and the HEMOGLOBIN (120 h, time 5 day) was 13.3 G/DL. The “LEUKOCYTE COUNT” value (120 h, time 5 day) was 13.83 x10E3/uL, the LYMPHOCYTE (120 h, time 5 day) was 87% and the “MEAN CORPUSCULAR HEMOGLOBIN” value (120 h, time 5 day) was 25 pg. The “MEAN CORPUSCULAR HEMOGLOBIN CONCENTRATION” value (120 h, time 5 day) was 37.23 G/DL, the “MEAN CORPUSCULAR VOLUME” value (120 h, time 5 day) was 67.17 fL and the MONOCYTE (120 h, time 5 day) was 3%. The NEUTROPHIL (120 h, time 5 day) was 9.67%, the “NUCLEATED RED BLOOD CELLS” value (120 h, time 5 day) was 0 /100WBC and the “PLATELET COUNT” value (120 h, time 5 day) was 1207 x10E3/uL. The “ALANINE AMINOTRANSFERASE” value (120 h, time 5 day) was 54.33 u/L, the ALBUMIN (120 h, time 5 day) was 4.4 G/DL and the “ALKALINE PHOSPHATASE” value (120 h, time 5 day) was 422.67 u/L. For the same compound, the “ASPARTATE AMINOTRANSFERASE” value (120 h, time 5 day) was 86.33 u/L, the “BLOOD UREA NITROGEN” value (120 h, time 5 day) was 16.67 mg/dL and the “CARBON DIOXIDE” value (120 h, time 5 day) was 23 mmol/L. For the same compound, the CHLORIDE (120 h, time 5 day) was 104 MEQ/L, the CHOLESTEROL (120 h, time 5 day) was 71.67 mg/dL and the “CREATINE PHOSPHOKINASE” value (120 h, time 5 day) was 218.33 u/L. The CREATININE (120 h, time 5 day) was 0.41 mg/dL, the GLUCOSE (120 h, time 5 day) was 152.67 mg/dL and the “LACTATE DEHYDROGENASE” value (120 h, time 5 day) was 99.67 u/L. It also gave an LIPASE (120 h, time 5 day) of 10.33 u/L, a PHOSPHORUS (120 h, time 5 day) of 12.27 mg/dL and a POTASSIUM (120 h, time 5 day) of 6.44 MEQ/L. The SODIUM (120 h, time 5 day) was 149.03 MEQ/L, the “TOTAL BILIRUBIN” value (120 h, time 5 day) was 0.17 mg/dL and the “TOTAL PROTEIN” value (120 h, time 5 day) was 6.17 G/DL. For the same compound, the “URIC ACID” value (120 h, time 5 day) was 1.8 mg/dL.
